Data reported in PubChem BioAssay (NCI).
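96-well plates; 48 h exposure; 5 concentrations. Endpoints by linear interpolation between flanking doses. Not reached: highest tested concentration assigned. At the GI50, growth is halved. The concentration for full growth arrest is given as TGI.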

Assays:
Experiment in all cases: NCI-60 cell line screen, 48 h
[1] = tested on: NCI-H23 lung
[2] = tested on: A549 NSCLC
[3] = tested on: OVCAR-5 ovarian
[4] = tested on: OVCAR-8 ovarian
[5] = tested on: M14 melanoma
[6] = tested on: SK-MEL-5 melanoma
[7] = tested on: SK-MEL-28 melanoma
[8] = tested on: OVCAR-3 ovarian
[9] = tested on: MDA-MB-231 breast
[10] = tested on: SR leukemia

Compound	TGI [1] [µM]	TGI [2] [µM]	TGI [3] [µM]	TGI [4] [µM]	TGI [5] [µM]	TGI [6] [µM]	TGI [7] [µM]	TGI [8] [µM]	TGI [9] [µM]	TGI [10] [µM]	GI50 [1] [µM]	GI50 [2] [µM]	GI50 [3] [µM]	GI50 [4] [µM]	GI50 [5] [µM]	GI50 [6] [µM]	GI50 [7] [µM]	GI50 [8] [µM]	GI50 [9] [µM]	GI50 [10] [µM]
O=S(=O)(CCn1c(Sc2ccccc2)c(Sc2ccccc2)c2ccccc21)c1ccccc1	> 100	> 100	> 100	> 100	> 100	> 100	> 100	> 100	> 100	> 100										
COC1=CC(=O)C(C2CC(=O)c3c(O)cc(O)cc3O2)=CC1=O (stereo not drawn)	40.5	> 72.6	41.4	59.7	35.1	31.7	31.4	39.9	29.1	15.6										
Cn1cnc([N+](=O)[O-])c1S(=O)(=O)Oc1cccc2ccccc12	32.1	52.4	27.8	18.7	10.2	28.8	14.5	3.96	14	4.57	10	17.5	7.55	4.62	3.17	13.7	4.68	1.89	4.46	1.74
Cc1cc(/C=C/c2ccc3cc(N(C)C)ccc3[n+]2C)c(C)n1-c1ccccc1	1.76	1.02	12.4	0.76	1.25	0.226	1.53	1.42	1.09	1.42	0.082	0.182	0.688	0.143	0.3	0.0835	0.568	0.197	0.193	0.0442
CCCCCCCC(=O)SCC/C=C/[C@@H]1CC(=O)NCc2cc(ccn2)C2=N[C@@](C)(CS2)C(=O)N[C@@H](C(C)C)C(=O)O1	> 33.3		> 33.3	> 33.3	> 13.3	0.051	1.02	0.362	> 33.3	> 33.3	0.0394	0.0116	< 0.0113	0.0109	0.0111	0.0117	0.0125	0.0362	0.05	0.00845
NC1(C(=O)OCc2ccccc2)CCCC1	43.6	> 100	85.7	37.4	35.2	37.4	48.7	28.7	36.4	> 100										
COc1cc(/C=C/c2cc(O)c(C(C)=O)c(O)c2)cc2c1O[C@]1(C)CC[C@@H](O)C(C)(C)[C@H]1C2	34.5	> 100	75.5	> 100	49.4	22.3	26.2	53.9	93	> 100	10.7	8.54	16.3	8.24	5.12	7.12	4.17	4.67	6.26	3.62
CCCCCCCCC/C=C1\CCC(CN2CCOCC2)C1=O (stereo not drawn)	9.18	34.7	31.6	3.13	9.41	18.8	9.2	24.9	11.2	6.28										
COc1ccc(-c2nnc(COc3ccc(NC(=O)Nc4cc(C(F)(F)F)cc(C(F)(F)F)c4)cc3F)o2)cc1	4.38	7.15	9.49	5.85	11.4	3.84	6.85	4.66	4.54	5.95	1.8	1.58	2.76	1.89	2.97	1.73	2.4	1.5	1.99	2.19
Cc1cc(O)c(/C=N/C(=S)NCc2ccccc2)c(=O)o1	> 100	> 100	> 100	> 100	> 100	> 100	> 100	> 100	> 100	> 100										
COc1cc(NCc2ccc3oc(=O)c(-c4ccccc4)nc3c2)cc(OC)c1OC	> 10	> 10	> 10	> 10	> 10	> 10	> 10	> 10	> 10	> 10										
CC(C)C(C)/C=C\C(C)C1CCC2C3=CC=C4CC(O)CCC4(C)C3CCC21C (stereo not drawn)	> 100	> 100	> 100	> 53.9	> 67.7	62.3	> 60.5	> 80.5	> 61.3	> 61.8										
N#CC(C#N)=CNC(N)=S	> 100	> 100	> 100	> 100	> 100	> 100	> 100	> 100	> 100	> 100										
COC(=O)C1=C(C)NC(C)=C(C(=O)OCCCN2CCC(c3ccccc3)(c3ccccc3)CC2)C1c1cccc([N+](=O)[O-])c1 (stereo not drawn)	3.32	3.41	7.3	3.39	3.13	3.16	3.39	2.8	2.65	4.5										
COc1ccc(/C=C(/C#N)n2nnc3cccc(F)c32)cc1	6.3	> 100	4.56	> 100	3.89	5.46	> 100	0.899	3.84	> 100	1.23	1.46	1.82	1.97	0.467	0.877	1.92	0.316	1.37	0.48
Nc1ncnc2n[nH]c(Nc3ccc(F)cc3)c12	> 100	> 100	> 100	> 100	> 100	> 100	88.4	> 100	81.2	94.6	67.8	39.2	60	22.5	13.4	19.6	24.1	30.8	21.5	13.3
C=C1NC(=O)C(C(C)CC)NC(=O)C2CSCC(NC(=O)CCC(=O)O)C(=O)NC(Cc3ccccc3)C(=O)NC(C)C(=O)NC(CC(C)CC)C(=O)NC(C(=O)NC(Cc3ccccc3)C(=O)N3CCCC3C(=O)N2)C(C)OC(=O)C(CO)NC(=O)C(C(O)COC)N(C)C(=O)C(C(C)C)NC(=O)C(CC(C)CC)NC1=O (stereo not drawn)	> 6	> 6	> 6	> 6	0.0391	0.427	> 6		3.24	> 6	0.1	0.0268	0.0327	0.0678	0.00878	0.00637	> 6	0.0118	0.0201	0.0259
C=C1C(=O)O[C@H]2[C@H]1CC/C(COC(=O)c1c[nH]c3ccccc13)=C\CC[C@@]1(C)O[C@@H]21	3.76	3.3	2.1	1.03	0.651	0.499	1.41	0.483	0.447	1.33	1.29	1.5	0.405	0.282	0.229	0.204	0.367	0.207	0.197	0.285
